Where only a bound is given, the exact number is not on record here.

The record followed here is patent publication US20090318456A1, “SUBSTITUTED PTERIDINES FOR THE TREATMENT AND PREVENTION OF VIRAL INFECTIONS” (Gilead Sciences, Inc., priority 2006, published 2009).

The target in series [1] is HCV replicon. Description: Anti-HCV replicon assay (EC50, luciferase). It is filed as cell-based, Hepatitis C virus (HCV). Conditions: Table 1; Huh-7 HCV replicon cells, 3 days, luciferase; read-out: EC50. The method, then: (§1) The anti HCV activity of specifically 2,4,6-trisubstituted pteridine derivatives was tested in a human hepatoma Huh-7 cell line harbouring a HCV replicon. The assay comprised the following steps:
(§2) Step 1: compound preparation and serial dilution involved the following alternatives, depending upon the water solubility of pteridine derivative being tested: • 1. with respect to water soluble 2,4,6-trisubstituted pteridine derivatives, 500 μL of solution in cell media (DMEM, 10% FBS, P/S, L-Glutamine) was prepared with a concentration that is twice the concentration of the starting final serial dilution concentration. 150 μL of the solution was added to the pre-specified wells in column 1 of a 96-well cell culture plate (PerkinElmer, white plate, cat. #6005181, for EC50 assay; black plate, cat. #6005182 for CC50 assay). The rest of the plate, i.e. columns 2-12, was filled with 100 μL of cell media. The plate was then placed on a Precision 2000 Workstation in order to start serial dilution. Pteridine compounds were diluted three times each step from column 1 to column 10. Column 11 was used as a blank control (no pteridine compound added). • 2. With respect to poorly water soluble pteridine derivatives, DMSO was used as a solvent, and serial dilution was performed in 50% DMSO in water, in a 384-well plate. A solution containing the relevant compound at 100-fold the concentration of the starting final serial dilution concentration was prepared in 50% DMSO in water and added to the pre-specified wells in column 1 of a polypropylene 384-well plate. This plate was then placed on a Precision 2000 Workstation in order to start serial dilution. After serial dilution, 2 μL of the solution was transferred from the 384-well plate to a 96-well cell culture plate containing 100 μL of cell media on a Biomek FX Workstation. The DMSO concentration in the final assay condition was 0.5% after cells have been added to the plate and the total volume in each well was brought to 200 μL. Step 2: to each well of the serial dilution plate prepared in step 1, 100 μL of cell media containing 6000 suspended Huh-7 HCV replicon cells was added with a Multidrop workstation. Plates were incubated for 3 days at 37° C. with 5% CO2. Step 3: detection: • 1) with respect to the EC50 assay, the media in a 96-well cell culture plate was aspirated with a Biotek EL405 plate-washer. A volume of 200 μL of a solution containing a 1:1 mixture of a cell-lysis buffer (commercially available from Promega, Luciferase Cell Culture Lysis 5× Reagent, cat. #E1531) and a luciferase substrate solution (commercially available from Promega, Luciferase Assay, cat. # E4550) was added to each well of the plate with Multidrop. The plate was incubated for 30 minutes at room temperature before the luminescence signal was measured with a TopCount plate-reader. • 2) with respect to the CC50 assay, 100 μL of a pre-mixed CellTiter-Glo (commercially available from Promega, cat. # G7572) solution was added directly to the cell culture in each well of the plate and the luminescence signal was measured with a TopCount plate-reader after 10 minutes of incubation at room temperature.
(§3) Results are expressed by the following data: • the 50% effective concentration (EC50), i.e. the concentration that protects 50% of the cell monolayer from virus-induced cythopathic effect, and • the 50% cytostatic concentration (CC50), i.e. the concentration that results in 50% inhibition of cell growth.

Series [2] relates to Huh-7 HCV replicon cells. Description: CC50 assay (CellTiter-Glo) in Huh-7 HCV replicon cells. It is filed as cell-based, human. The settings on record: Table 1, 3 days. The method, then:
as §1, §2, §3
(In general: Cellular ATP, detected with luciferase, serves as a proxy for viable cell number.)

As to `COc1ccc(-c2cnc3nc(N)nc(N4CCN(C(=O)COc5ccccc5)CC4)c3n2)cc1OC` [Example 1], in series [1], the EC50 was less than 0.3 µM. The molecule also gave a half-maximal cytotoxic concentration (CC50) in series [2] of more than 20 µM.

Consider `COc1ccc(-c2cnc3nc(N)nc(N4CCN(CCOc5ccccc5)CC4)c3n2)cc1OC` [Example 2], for which the EC50 in series [1] was less than 0.3 µM. This molecule also showed a CC50 in series [2] of more than 20 µM.

`COc1ccc(-c2cnc3nc(N)nc(N4CCN(C(=O)Nc5cccc(C)c5)CC4)c3n2)cc1OC` [Example 3]: the EC50 in series [1] is less than 0.3 µM. In series [2], this molecule displayed a CC50 of less than 10 µM.

`COc1ccc(-c2cnc3nc(NCc4cccs4)nc(N)c3n2)cc1OC` [Example 12]: the EC50 in series [1] was in the range of 0.3 to 1 µM. Also, in series [2], the CC50 is 10 to 20 µM.

As for `CCCCCC(=O)N1CCN(c2nc(N)nc3ncc(-c4ccc(OC)c(OC)c4)nc23)CC1` [Example 16], the EC50 in series [1] was less than 0.3 µM. Moreover, in series [2], the CC50 is 10 to 20 µM.

As to `COc1ccc(-c2cnc3nc(N)nc(N4CCN(C(=O)c5cccs5)CC4)c3n2)cc1OC` [Example 19], in series [1], the EC50 is less than 0.3 µM. Moreover, the cytotoxic concentration (CC50) in series [2] lay within 10 to 20 µM.

As for `CCN(CC)C(=O)N1CCN(c2nc(N)nc3ncc(-c4ccc(OC)c(OC)c4)nc23)CC1` [Example 20], in series [1], the concentration for a half-maximal effect (EC50) was less than 0.3 µM. Further, in series [2], the CC50 is more than 20 µM.

For `COc1ccc(-c2cnc3nc(N)nc(N4CCN(C(=O)c5ccncc5)CC4)c3n2)cc1OC` [Example 22], in series [1], the EC50 was less than 0.3 µM. Also, the CC50 in series [2] was in the range of 10 to 20 µM.

For the molecule `CCCCCOc1ccc(C(=O)N2CCN(c3nc(N)nc4ncc(-c5ccc(OC)c(OC)c5)nc34)CC2)cc1` [Example 24], in series [1], the EC50 is less than 0.3 µM. For the same molecule, the CC50 in series [2] is less than 10 µM.

As to `COc1ccc(-c2cnc3nc(N)nc(N4CCN(S(=O)(=O)c5ccccc5)CC4)c3n2)cc1OC` [Example 26], in series [1], the EC50 was less than 0.3 µM. Besides, the CC50 in series [2] was 10 to 20 µM.

For `COc1ccc(-c2cnc3nc(N)nc(N4CCN(C(=O)Cc5cccs5)CC4)c3n2)cc1OC` [Example 27], the EC50 in series [1] was less than 0.3 µM. In addition, the CC50 in series [2] is less than 10 µM.

In the case of `COc1ccc(-c2cnc3nc(N)nc(N4CCN(C(=O)/C=C/c5ccccc5)CC4)c3n2)cc1OC` [Example 28], the EC50 in series [1] was less than 0.3 µM. Besides, in series [2], the CC50 was less than 10 µM.

Take `COc1ccc(-c2cnc3nc(N)nc(N4CCN(C(=O)N5CCCC5)CC4)c3n2)cc1OC` [Example 29]: the EC50 in series [1] was less than 0.3 µM. Further, in series [2], the CC50 was 10 to 20 µM.

Regarding `COc1ccc(-c2cnc3nc(N)nc(N4CCN(C(=O)c5cc(F)c(Cl)nc5Cl)CC4)c3n2)cc1OC` [Example 31], the half-maximal effective concentration (EC50) in series [1] is less than 0.3 µM. The molecule further gave a CC50 in series [2] of less than 10 µM.

On to `COCC(=O)N1CCN(c2nc(N)nc3ncc(-c4ccc(OC)c(OC)c4)nc23)CC1` [Example 32], for which the EC50 in series [1] is less than 0.3 µM. This molecule came in with a CC50 in series [2] of more than 20 µM.

`COc1ccc(-c2cnc3nc(N)nc(N4CCN(S(=O)(=O)Cc5ccccc5)CC4)c3n2)cc1OC` [Example 34]: the EC50 in series [1] was less than 0.3 µM. For the same molecule, in series [2], the CC50 was more than 20 µM.

Consider `COc1ccc(-c2cnc3nc(N)nc(N4CCN(C(=O)Cc5ccc(Cl)cc5)CC4)c3n2)cc1OC` [Example 36], for which the EC50 in series [1] is less than 0.3 µM. This molecule yielded a CC50 in series [2] of less than 10 µM.

In the case of `COc1ccc(-c2cnc3nc(N)nc(N4CCN(C(=O)c5ccoc5)CC4)c3n2)cc1OC` [Example 38], the EC50 in series [1] lay in the range of 0.3 to 1 µM. The molecule further returned a CC50 in series [2] of 10 to 20 µM.

On to `COc1ccc(-c2cnc3nc(N)nc(N4CCN(C(=O)OCc5ccccc5)CC4)c3n2)cc1OC` [Example 43], for which the EC50 in series [1] is less than 0.3 µM. The molecule further came in with a CC50 in series [2] of less than 10 µM.

As to `COc1ccc(-c2cnc3nc(N)nc(N4CCN(Cc5cccc(C)c5)CC4)c3n2)cc1OC` [Example 49], the half-maximal effective concentration (EC50) in series [1] is less than 0.3 µM. In series [2], this molecule showed a CC50 of 10 to 20 µM.

Turning to `COc1ccc(-c2cnc3nc(N)nc(N4CCN(Cc5ccc(C)cc5)CC4)c3n2)cc1OC` [Example 52], in series [1], the EC50 is 0.3 to 1 µM. The CC50 in series [2] was more than 20 µM.

In the case of `COc1ccc(-c2cnc3nc(N)nc(N4CCN(Cc5ccccc5F)CC4)c3n2)cc1OC` [Example 53], the concentration for a half-maximal effect (EC50) in series [1] is less than 0.3 µM. For the same molecule, in series [2], the cytotoxic concentration (CC50) was less than 10 µM.

On to `CCCCc1ccc(C(=O)N2CCN(c3nc(N)nc4ncc(-c5ccc(OC)c(OC)c5)nc34)CC2)cc1` [Example 54], for which the EC50 in series [1] was less than 0.3 µM. Also, in series [2], the CC50 was less than 10 µM.

`COCCN1CCN(c2nc(N)nc3ncc(-c4ccc(OC)c(OC)c4)nc23)CC1` [Example 55]: in series [1], the EC50 lay within 0.3 to 1 µM. Further, the CC50 in series [2] was more than 20 µM.

Take `COc1ccc(-c2cnc3nc(N)nc(N4CCN(C(=O)Oc5ccc(C)cc5)CC4)c3n2)cc1OC` [Example 59]: in series [1], the EC50 is less than 0.3 µM. In addition, the CC50 in series [2] was less than 10 µM.

Consider `COc1ccc(OC(=O)N2CCN(c3nc(N)nc4ncc(-c5ccc(OC)c(OC)c5)nc34)CC2)cc1` [Example 60], for which, in series [1], the EC50 is less than 0.3 µM. The CC50 in series [2] is less than 10 µM.

With `COc1ccc(-c2cnc3nc(N)nc(N4CCN(C(=O)Oc5ccc(Cl)cc5)CC4)c3n2)cc1OC` [Example 63], in series [1], the EC50 was less than 0.3 µM. For the same molecule, the CC50 in series [2] was less than 10 µM.

As to `COCCOC(=O)N1CCN(c2nc(N)nc3ncc(-c4ccc(OC)c(OC)c4)nc23)CC1` [Example 65], the 50% effective concentration (EC50) in series [1] was less than 0.3 µM. In series [2], this molecule gave a half-maximal cytotoxic concentration (CC50) of 10 to 20 µM.

As for `COc1ccc(-c2cnc3nc(N)nc(N4CCN(C(C)c5ccccc5)CC4)c3n2)cc1OC` (centres unmarked) [Example 73], the 50% effective concentration (EC50) in series [1] was less than 0.3 µM. The molecule also gave a CC50 in series [2] of less than 10 µM.

Regarding `COc1ccc(-c2cnc3nc(N)nc(N4CCN(Cc5cccnc5)CC4)c3n2)cc1OC` [Example 80], in series [1], the concentration for a half-maximal effect (EC50) was less than 0.3 µM. Moreover, the CC50 in series [2] lay within 10 to 20 µM.

With `COc1ccc(-c2cnc3nc(N)nc(N4CCN(Cc5ccncc5)CC4)c3n2)cc1OC` [Example 81], the EC50 in series [1] fell in the range of 0.3 to 1 µM. For the same molecule, the half-maximal cytotoxic concentration (CC50) in series [2] was 10 to 20 µM.

In the case of `COc1ccc(-c2cnc3nc(N)nc(N4CCN(CC(=O)N5CCOCC5)CC4)c3n2)cc1OC` [Example 83], the EC50 in series [1] is 0.3 to 1 µM. Also, the CC50 in series [2] was more than 20 µM.

As for `COc1ccc(-c2cnc3nc(N)nc(N4CCN(CC(=O)N5CCCC5)CC4)c3n2)cc1OC` [Example 84], the EC50 in series [1] was less than 0.3 µM. In addition, the CC50 in series [2] is more than 20 µM.

On to `COc1ccc(-c2cnc3nc(N)nc(N4CCN(CC(=O)N(C)c5ccccc5)CC4)c3n2)cc1OC` [Example 85], for which the concentration giving a half-maximal response (EC50) in series [1] is less than 0.3 µM. This molecule came in with a half-maximal cytotoxic concentration (CC50) in series [2] of less than 10 µM.

For `COc1ccc(-c2cnc3nc(N)nc(N4CCN(CCc5ccccc5)CC4)c3n2)cc1OC` [Example 86], the 50% effective concentration (EC50) in series [1] is less than 0.3 µM. The CC50 in series [2] was 10 to 20 µM.

Regarding `COc1ccc(-c2cnc3nc(N)nc(N4CCN(C(=O)Nc5ccccc5)CC4)c3n2)cc1OC` [Example 87], the EC50 in series [1] is less than 0.3 µM. This molecule showed a CC50 in series [2] of less than 10 µM.

Turning to `COc1ccc(-c2cnc3nc(N)nc(N4CCN(C(=O)Nc5ccc(F)cc5)CC4)c3n2)cc1OC` [Example 88], the EC50 in series [1] was less than 0.3 µM. Also, in series [2], the CC50 was less than 10 µM.

In the case of `COc1ccc(-c2cnc3nc(N)nc(N4CCN(C(=O)Nc5ccc(C#N)cc5)CC4)c3n2)cc1OC` [Example 89], in series [1], the 50% effective concentration (EC50) was less than 0.3 µM. Also, in series [2], the CC50 was more than 20 µM.

On to `COc1ccc(N2CCN(c3nc(N)nc4ncc(-c5ccc(OC)c(OC)c5)nc34)CC2)cc1` [Example 95], for which the EC50 in series [1] is 0.3 to 1 µM. The same molecule showed a CC50 in series [2] of more than 20 µM.

`CCOC(=O)CN1CCN(c2nc(N)nc3ncc(-c4ccc(OC)c(OC)c4)nc23)CC1` [Example 98]: in series [1], the EC50 was less than 0.3 µM. In series [2], this molecule returned a CC50 of 10 to 20 µM.

A word on the EC50: it is the concentration needed to bring the measured effect to its halfway point. The CC50 is the concentration that lowers cell viability or growth by half.
